Earlier results on one substance are cited in patent US20130137766A1, “Compound Used to Prevent Diseases Caused by Aquaporin Deficiency” (FU-JEN CATHOLIC UNIVERSITY, priority 2010, published 2013).

The data set has as its system AQP-3. The note with it: EGF-treated groups.

As for “EGF: epidermal growth factor, literature comparator (Cong Cao et al.) (NSDSECPLSHDGYCLHDGVCMYIEALDKYACNCVVGYIGERCQYRDLKWWELR; UniProt P01133 971-1023, looked up)”, the “expression of AQP-3” value is listed as “significantly increased” and the wound healing entry was “wound healing was facilitated”.
